Test results reported in patent publication US20220378761A1, “PAPD5 Inhibition As A Treatment For Dyskeratosis Congenita, Aplastic Anemia And Myelodysplastic Syndrome Caused By Reduced Telomerase RNA Levels” (The Regents of The University of Colorado, A Body Corporate, priority 2019, published 2022).

Legend:
DKC1_A353V hESCs [1] = assay: Whole-genome RNA-sequencing of DKC1_A353V hESCs; assay type: cell-based, Homo sapiens; conditions: 1 μM RG7834 vs DMSO
Protocol: The present inventors investigated if treatment with RG7834 was sufficient to reduce DNA damage signaling arising from eroded telomeres, a hallmark of DC.
RNA-seq of transcriptome from DMSO or RG7834 treated DKC1_A353V cells: RNA was extracted from DMSO or RG7834 (1 μM) treated DKC1 mutant cells using Trizol as per manufacturer's instructions and contaminating DNA was removed using TURBO DNase. 1 μg of total RNA in triplicate from each condition was depleted of ribosomal RNA using Ribocop rRNA depletion kit V3 (Lexogen). 50 ng of recovered total RNA was used for strand-specific library preparation using the Rapid Directional RNA-seq kit 2.0 (Perkin Elmer) as per manufacturer's protocol. Prepared libraries were sequenced on an Illumina HiSeq using 2×150 paired end sequencing kit. Demultiplexed reads were checked for quality using the FastQC tool and subjected to adapter trimming using Trimmomatic. Trimmed reads were aligned to the hg38 p13 version 99 human genome release and annotation obtained from ENSEMBL using the STAR alignment software. Aligned files were sorted according to chromosomal coordinate and compressed to BAM files. HTSeq was used to count the number of reads for each gene from BAM files. Read counts were used for downstream analysis for changes in gene expression using DESeq2. […]

DKC1_A353V hESCs [2] = assay: Colony forming culture assay of definitive hematopoietic progenitors; assay type: cell-based, Homo sapiens; conditions: day 28 of differentiation, DKC1_A353V cells, different concentrations
Source text: Because bone marrow failure is the leading cause of death in DC, the present inventors wanted to analyze the consequences of RG7834 treatment in DKC1_A353V cells during definitive hematopoietic differentiation. There are no animal models that faithfully recapitulate the hematopoietic defects observed in patients harboring pathogenic mutations in DKC1 or PARN; therefore, the present inventors followed established protocols of hESC differentiation into hematopoietic lineages. These protocols recapitulate, in vitro, the major aspects of blood development in vivo, a strategy shown to accurately model key aspects of DC. A schematic of the protocol is depicted in FIG. 6. […] These observations provide compelling evidence that chemical inhibition of PAPD5, in addition to rescuing telomerase function, is sufficient to increase definitive, multilineage, hematopoietic potential in DKC1_A353V mutants.
Colony forming culture assays: Colony assays were performed using MethoCult H4034 Optimum (StemCell Technologies, Vancouver, Canada). […] Cells were maintained in 5% CO2 and 5% O2 incubator for 8 days and then placed into 1 ml of MethoCult in which the colonies forming were measured after 12 days. […]

DKC1_A353V hESCs [3] = assay: Telomere length by telomere restriction fragment analysis in DKC1_A353V hESCs; assay type: cell-based, Homo sapiens; conditions: sustained treatment up to 3 months
Protocol: Telomere length analysis: Telomere length analysis were performed by Telomere Repeat Fragment (TRF) technique. Briefly, DNA was extracted using tail lysis buffer (10 mM Tris-HCl, pH 8.0, 100 mM NaCl, 10 mM EDTA, 0.5% SDS supplemented with 400 μg/ml Proteinase K) at 55° C. overnight. 10 μg of DNA was digested with Rsa1 and Hinf1 restriction enzymes (New England Biolabs, Ispwich, Mass.) overnight and 2.5 μg of product was resolved in a 0.75% agarose gel for 16 hr at 85V in TBE buffer. The gel was incubated with denaturing buffer (1.5M NaCl and 0.5M NaOH) for 45 min followed by neutralizing buffer (1.5M NaCl, 1M Tris-HCl at pH 7.4) for 1 hr. DNA was transferred to a nitrocellulose membrane by capillary action for 2 days in 10× saline-sodium citrate (3M NaCl, 0.3M sodium citrate dehydrate at pH 7.0). After cross-linking, the membrane was hybridized with a ^32P-labelled probe (CCCTAA) and exposed to Carestream BioMax MT film. Mean telomere length was analyzed using TeloTool with the corrected and nonlinear fit order 1 ladder fit options.

TERT = TERT quantification by qRT-PCR in DKC1_A353V hESCs; assay type: cell-based, Homo sapiens; conditions: up to 30 days
Source text: (§1) Treatment of DKC1_A353V hESCs with RG7834 caused a >15-fold reduction in the 3′-end oligoadenylation of TERC, indicating efficient PAPD5 inhibition in these cells (FIG. 2A).
RNA extraction and Quantitative real-time PCR: Total RNA was isolated using Trizol (Invitrogen) in accordance with the manufacturer's instructions followed by Turbo DNA-free DNase (Invitrogen) treatment. RNA was converted into cDNA using Superscript III First Strand synthesis kit (Invitrogen) following manufacturer's instructions. Real-time PCR was performed using Evagreen master mix (Lambda Biotech, St. Louis, Mo.) on a StepOne Plus instrument DNase treatment (Thermo Fisher Scientific). For TERC analysis, Brilliant II 1-step qRT-PCR master mix (Agilent, Santa Clara, Calif.) was used following manufacturer's instructions. Reactions were performed in triplicates with 100 ng of RNA per reaction and used gene-specific (for/rev) primers were as follows: […]

PAPD5 = target: T1, PAPD5 (Homo sapiens, UniProt Q8NDF8); assay: 3′ end sequencing of TERC (oligoadenylation) in DKC1_A353V hESCs; assay type: cell-based
T1 construct: endogenous in cells; host or cells: DKC1_A353V mutant hESCs (H1; WA01), made by CRISPR/Cas9 editing
T1 sequence (Q8NDF8 whole entry): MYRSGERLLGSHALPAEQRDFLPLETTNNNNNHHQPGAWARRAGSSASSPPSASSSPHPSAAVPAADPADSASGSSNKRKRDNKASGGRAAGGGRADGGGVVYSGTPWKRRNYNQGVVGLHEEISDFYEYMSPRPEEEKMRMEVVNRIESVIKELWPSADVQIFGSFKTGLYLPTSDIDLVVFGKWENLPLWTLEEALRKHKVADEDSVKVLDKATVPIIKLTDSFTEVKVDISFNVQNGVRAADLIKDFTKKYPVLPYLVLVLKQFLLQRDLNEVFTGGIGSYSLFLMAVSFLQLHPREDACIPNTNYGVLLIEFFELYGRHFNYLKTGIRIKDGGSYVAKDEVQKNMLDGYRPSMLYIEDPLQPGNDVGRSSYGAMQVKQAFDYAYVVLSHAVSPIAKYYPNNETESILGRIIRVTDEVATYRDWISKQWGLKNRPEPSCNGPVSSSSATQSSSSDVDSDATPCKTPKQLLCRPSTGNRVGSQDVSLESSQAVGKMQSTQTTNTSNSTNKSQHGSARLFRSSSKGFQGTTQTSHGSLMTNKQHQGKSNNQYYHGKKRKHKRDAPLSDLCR
Protocol: as §1
3′ end sequencing of TERC: Briefly, ˜100 ng of DNase-treated, rRNA-depleted, Antarctic phosphatase treated RNA was ligated with 40 pmol of barcoded appendix (2 reactions per sample) using T4 RNA Ligase I and 10 mM ATP. Enzymatic reaction was cleaned up using RNA clean and concentrator kit (Zymo). 4 μl of […] from each reaction (8 μl total RNA) was used for cDNA synthesis using a primer complementary to the appendix. The cDNA product was then used as template for 5′ RACE using TERC-specific barcoded primers and a universal primer. The RACE product was size-selected on a 1% agarose gel and fragments ˜100-300 bp were gel purified and amplified using Illumina sequencing primers. Libraries were multiplexed and sequenced on an Illumina NextSeq sequencer (mid-output setting and 1×150 cycle kit). Sequenced reads were filtered using both the TERC primer and the appendix barcode and reads with 100% sequence identify were used for downstream analysis. TERC reads with […] at the mature end (for e.g., UGCAA, UGCAAA, etc.) were quantified as oligoadenylated for analysis.

For `COCCCOc1cc2c(cc1OC)-c1cc(=O)c(C(=O)O)cn1[C@H](C(C)C)C2` [RG7834], the “changes in gene expression” value (DKC1_A353V hESCs [1]) was “did not lead to significant changes in gene expression”, the “definitive hematopoietic colony potential” value (DKC1_A353V hESCs [2]) was “significantly increased the hematopoietic potential” and the “telomere maintenance (telomere length)” value (DKC1_A353V hESCs [3]) was “improved telomere maintenance”. The “levels of telomerase reverse transcriptase (TERT)” value (TERT) was “remained unchanged” and the “reduction in the 3′-end oligoadenylation of TERC” value (PAPD5) was over 15 fold.
